Article PMC4564614, “Purification and Characterization of Asparaginase from Phaseolus vulgaris Seeds” (Evidence-based Complementary and Alternative Medicine : eCAM, 2015)

Test system: T1, L-asparaginase I (asparaginase I)
T1 construct: gene ASPG1
Details: 50 mM Tris-HCl pH 8.0, 50 mM KCl, 37 °C (standard assay); L-asparagine 2-20 mM

NC(=O)C[C@H](N)C(=O)O [L-asparagine] was tested, and the Km was 6.72 mM.
